Source: patent US7432341B2, “Cytokine receptor modulators and method of modulating cytokine receptor activity” (Valo HSJ, Limited Partnership, priority 2002, dated 2008)
pEC50, pIC50: −log10 of the molar value. Non-standard residues stand in square brackets, D forms with d. Residues, ends and D or L forms follow the SMILES beside them. No end group written: not given here.

Columns and labels:
[1] = target: T1, IL-1R/IL-1RacP (Homo sapiens, UniProt Q9NPH3); experiment: IL-1 induced proliferation in A549 carcinoma cells, tritiated thymidine method; format: cell-based; settings: IL-1 10 ng/ml or 1 ng/ml; peptides 10^−6 to 10^−4 M
T1 construct: endogenous in cells; host or cells: A549 carcinoma cells
T1 sequence (Q9NPH3 21-570): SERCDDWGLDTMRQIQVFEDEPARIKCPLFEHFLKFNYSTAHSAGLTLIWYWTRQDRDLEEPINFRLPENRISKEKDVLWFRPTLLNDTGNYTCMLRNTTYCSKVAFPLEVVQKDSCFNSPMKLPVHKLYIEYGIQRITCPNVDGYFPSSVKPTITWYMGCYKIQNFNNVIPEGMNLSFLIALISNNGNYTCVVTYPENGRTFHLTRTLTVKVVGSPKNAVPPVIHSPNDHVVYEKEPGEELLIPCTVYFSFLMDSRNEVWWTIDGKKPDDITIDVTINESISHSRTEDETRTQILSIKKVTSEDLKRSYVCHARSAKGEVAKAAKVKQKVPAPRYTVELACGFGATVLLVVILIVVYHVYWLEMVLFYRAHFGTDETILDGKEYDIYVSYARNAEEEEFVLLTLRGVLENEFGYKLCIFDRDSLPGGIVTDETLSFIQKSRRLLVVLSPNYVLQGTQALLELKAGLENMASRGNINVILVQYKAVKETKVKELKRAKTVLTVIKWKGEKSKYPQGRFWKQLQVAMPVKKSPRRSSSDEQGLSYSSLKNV
Protocol: FIG. 9 graphically illustrates results of proliferation assays in carcinome A549 cells in presence of IL-1 (10 ng/ml-Panel A) (1 ng/ml-Panel B) and various concentrations of the peptides API-101, API-103 and API-106;
The proliferation effect of IL-1 was measured in A549 carcinoma cells in the presence of peptides API101; API103 and API106 and of IL-1 (10 ng/ml-Panel A) and (1 ng/ml-Panel B) pursuant to the incorporated tritiated thymidine method. The cells were preincubated at 37° C. with the different peptides at different concentrations, namely 10^−6, 10^−5 and 10^−4 M. They were then incubated with IL-1 (10 ng/ml or 1 ng/ml) for 24 hours. The cells were then contacted with ^3H-Thymidine for 24 hours, washed and lysed. The radioactivity was then measured with a scintillation counter. The sequences of the peptides antagonists used are as follows: API-101 […], API-103 […]; and API-106 […]. They generally correspond to the subfragment peptides having sequences SEQ ID NO: 50, NO: 52 and NO: 53, respectively except where the subfragment peptide contained an isoleucine. In that case, this isoleucine was replaced by a conservative leucine in the synthesized peptide for economic reasons.

[2] = tested on: IL-1R/IL-1RacP; experiment: Vasomotricity of piglet pial vessels, IL-1β induced vasodilatation; settings: IL-1β 75 ng/ml; U46619 10^−7M preconstriction; peptide 10^−10 to 10^−5 M; data not shown; read-out: IC50, prevention of vasodilation induced by IL-1β in piglet pial vessels
Protocol: In another experiment, vasomotricity variation of piglets pial vessels was studied to further evaluate the particular effect of cytokine receptor subfragments on the vasodilatator effect of IL-1β. Brains were dissected from Yorkshire piglets. Slices of brain exposing the pial vessels were pinned to a wax base of a 20 ml bath containing Krebs buffer (pH 7.4) equilibrated with 95% O2-5% CO2 and maintained at 37° C. Microvessels were visualized and recorded using a video camera mounted on a dissecting microscope. Vascular diameter was measured using a digital image analyzer and the images were recorded before and after topical application of constricting agent U46619 at 10^−7M. After stabilization of the vasomotricity, IL-1β was added until stabilization of vasodilatation. Peptides were then injected at different concentrations from 10^−10 to 10^−5M. Reversal of vasodilatation (i.e. vasoconstriction) was visualized and measured as previously mentioned. IL-1β induced vasodilatation in the microvasculature of the piglet brain was observed. […] The range of concentrations of the peptide administered was from 10^−10 to 10^−5 M.

[3] = tested on: VEGFR2 (Flk-1); experiment: VEGF induced proliferation in microvascular endothelial cells, incorporated tritiated thymidine method; format: cell-based, porcine; settings: VEGF 2 ng/ml; peptides 10 μM (FIG. 2 panel A)
Protocol: (§1) FIG. 2 graphically illustrates in panel A results of proliferation assay in porcine microvascular endothelial cells in presence of VEGF (2 ng/ml) and peptides 2.1, 2.2, 2.3 (10 μM). In panel B are graphically illustrated dose-response of peptides in pulmonary arterial endothelial cells (PAEC) in presence of VEGF (2 ng/ml) and increasing doses of peptides. In panel C is graphically illustrated the effect of intravitreally injected peptides (10 μM [estimated final intraocular concentration]) of the present invention on neovascularization in rat retinas exposed to hyperoxic conditions;
To determine the efficient and non cytotoxic concentration of VEGF to use in the assay, a dose-response curve of VEGF was generated in two types of cells, namely microvascular endothelial cells and pulmonary artery endothelial cells (PAEC) that had been transfected with the Flk-1 gene. The proliferation was then measured in those two types of cells in the presence of peptides 2.1, 2.2 and 2.3 and of VEGF (2 ng/ml) pursuant to the incorporated tritiated thymidine method. The cells were preincubated at 37° C. with the different peptides at different concentrations. They were incubated with VEGF (2 ng/ml) for 24 hours. The cells were contacted with ^3H-Thymidine for 24 hours, washed and lysed. The radioactivity was measured with a scintillation counter.

[4] = target: T2, VEGFR (Flk-1) (Rattus norvegicus, UniProt O08775); experiment: Ischemic retinopathy model, neovascularization in rat retinas exposed to hyperoxic conditions; format: in vivo; settings: rat pups, 80% O2 then normoxia; peptides 10 μM final concentration in the vitreous body
T2 construct: from tissue; host or cells: rat pup retina (in vivo, intravitreal injection)
Protocol: as §1
The efficiency of the selected peptides was verified in vivo in a ischemic retinopathy model, a phenomena highly dependant on VEGF activation. Rat pups were exposed to 80% O2 followed by a period of normoxia (21% O2). The peptides were injected at a final concentration of 10 μM in the vitreous body. The retinas were then retrieved, colored with the ADPase method and mounted on slides. Photographs of the retinas were taken with a microscope linked to a computer and the vascular density was evaluated with the Image prosoftware.

T2 sequence (O08775 20-1343): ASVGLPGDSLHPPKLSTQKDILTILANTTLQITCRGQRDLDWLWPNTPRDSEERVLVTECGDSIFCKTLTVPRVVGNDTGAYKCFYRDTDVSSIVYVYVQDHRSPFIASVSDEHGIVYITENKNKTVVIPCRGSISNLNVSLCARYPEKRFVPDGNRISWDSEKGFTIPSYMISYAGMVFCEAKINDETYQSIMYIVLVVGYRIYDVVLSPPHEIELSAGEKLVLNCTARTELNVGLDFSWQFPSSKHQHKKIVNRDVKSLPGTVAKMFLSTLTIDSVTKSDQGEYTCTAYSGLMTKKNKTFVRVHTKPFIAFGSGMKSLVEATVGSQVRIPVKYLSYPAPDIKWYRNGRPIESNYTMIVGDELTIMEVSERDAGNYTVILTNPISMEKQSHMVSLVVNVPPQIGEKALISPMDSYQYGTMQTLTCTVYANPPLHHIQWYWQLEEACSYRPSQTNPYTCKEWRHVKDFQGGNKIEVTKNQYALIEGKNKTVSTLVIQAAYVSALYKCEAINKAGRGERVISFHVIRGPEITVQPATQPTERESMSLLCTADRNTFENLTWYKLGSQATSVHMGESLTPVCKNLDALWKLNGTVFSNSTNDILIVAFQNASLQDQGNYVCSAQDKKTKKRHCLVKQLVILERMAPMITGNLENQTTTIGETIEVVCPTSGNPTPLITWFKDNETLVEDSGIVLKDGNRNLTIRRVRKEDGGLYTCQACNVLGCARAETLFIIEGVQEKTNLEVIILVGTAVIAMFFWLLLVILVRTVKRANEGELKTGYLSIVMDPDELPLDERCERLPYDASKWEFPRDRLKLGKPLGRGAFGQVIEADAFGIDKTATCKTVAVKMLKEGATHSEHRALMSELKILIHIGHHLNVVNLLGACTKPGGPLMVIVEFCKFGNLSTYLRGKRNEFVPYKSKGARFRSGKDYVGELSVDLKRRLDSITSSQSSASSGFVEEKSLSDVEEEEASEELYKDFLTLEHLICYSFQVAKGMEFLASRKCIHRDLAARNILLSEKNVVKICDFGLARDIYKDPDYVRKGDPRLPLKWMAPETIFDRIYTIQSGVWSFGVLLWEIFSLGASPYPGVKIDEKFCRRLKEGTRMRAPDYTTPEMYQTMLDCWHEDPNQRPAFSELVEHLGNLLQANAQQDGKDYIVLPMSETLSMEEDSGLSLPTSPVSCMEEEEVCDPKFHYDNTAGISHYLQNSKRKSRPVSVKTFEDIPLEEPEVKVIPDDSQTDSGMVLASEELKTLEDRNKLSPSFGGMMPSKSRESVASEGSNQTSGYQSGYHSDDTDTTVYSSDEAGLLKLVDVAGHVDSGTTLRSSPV

Row | pEC50 [1] | pIC50 [2] | Compound | VEGF induced proliferation in microvascular endothelial cells [3] | induced neovascularization in vivo (vascular density of retina) [4]
1 | 6.00 | 6.74 | APRYTVELA [API-101] | – | –
2 | – | – | CC(C)C[C@@H](NC(=O)[C@@H](CCCNC(=N)N)NC(=O)[C@H](NC(=O)[C@@H](CCCNC(=N)N)NC(=O)[C@@H](CCC(=O)O)NC(=O)CNC(=O)[C@H](NC(=O)[C@H](NC(=O)[C@@H](C)NC(=O)[C@H](N)CCC(=O)O)[C@H](C)O)C(C)C)C(C)C)C(=O)O [2.2] (H-[dE][dA][dT][dV]G[dE][dR][dV][dR][dL]-OH; N-terminus and C-terminus assumed) | completely abrogated | most effective inhibitor of neovascularization
3 | 6.00 | – | MKLPVHKLY [API-103] | – | –
4 | – | – | CC[C@@H](C)[C@@H](NC(=O)[C@@H](CCC(=O)O)NC(=O)[C@@H](CC(C)C)NC(=O)[C@@H](CC(N)=O)NC(=O)[C@H](NC(=O)[C@@H](CCCCN)NC(=O)[C@@H](CCC(=O)O)NC(=O)[C@@H](CCC(N)=O)NC(=O)[C@@H](C)N)[C@H](C)O)C(=O)N[C@@H](C(=O)N[C@@H](C(=O)N[C@H](CC(C)C)C(=O)N[C@@H](C(=O)NCC(=O)O)C(C)C)[C@H](C)CC)[C@H](C)CC [2.1] (H-[dA][dQ][dE][dK][dT][dN][dL][dE][dI][dI][dI][dL][dV]G-OH; N-terminus and C-terminus assumed) | completely abrogated | –
